The subject of one data set is reserpine ptosis. Nature of the data set: reserpine antagonism (reserpine ptosis test). The following applies: for change in vivo at 25 mg/kg: po, 1 hr after 25 mg/kg of substance orally, read-out: % Influence on reserpine ptosis. In kind it is in vivo. The method, then:
The therapeutic activity of compounds according to the invention was determined by measurement of reserpine antagonism (B. Rubin et al., "J. Pharmacol. exp. Therap." Vol 120 (1957) p 125) and by the effect on the fighting behaviour of fighting mice in the test arrangement of G. Y. Yen et al., (Arch. Int. Pharmacodyn, Vol 123 (1959) p 179).

The nature of a further data set: acute toxicity (LD50). The following applies: in vivo.
Another data set has as its system heart. The data set is described as follows: influence on the heart mechanogram (heart muscle force). Also noted: key to Action on the heart mechanogram: (--): reduction of 10%; --: reduction of 25%; ----: reduction of 50%; .phi.: substantially no action. The method, then: The compounds according to the invention were also tested for their influence on coronary through-flow on the heart mechanogram and for their spasmolytic action. […]

The subject of a further data set is coronary vessels. Nature of the data set: influence on coronary through-flow. The method, then: (§1) The compounds according to the invention were also tested for their influence on coronary through-flow on the heart mechanogram and for their spasmolytic action.
In data set [1] the test system is isolated guinea pig intestine (BaCl2). Nature of the data set: spasmolytic action against barium chloride on the isolated guinea pig intestine. Also noted: key to Spasmolytic action against BaCl2 (ED50): (--): reduction of 10%; --: reduction of 25%; ----: reduction of 50%; .phi.: substantially no action. Particulars: barium chloride 10^-4 mg/ml; for IC50: Cavia porcellus, read-out: Spasmolytic action against BaCl2 (ED50). The method, then: as §1
(§2) The latter test was performed on the isolated guinea pig intestine by the method of R. Magnus ("Pflugers Archiv" Vol 102 (1904) p 123).

Data set [2] relates to isolated guinea pig intestine (acetylcholine). Nature of the data set: spasmolytic action against acetylcholine on the isolated guinea pig intestine. Also noted: key to Spasmolytic action against Acetylcholine (ED50): (--): reduction of 10%; --: reduction of 25%; ----: reduction of 50%; .phi.: substantially no action. Particulars: acetylcholine 10^-7 g/ml; for IC50: Cavia porcellus, read-out: Spasmolytic action against Acetylcholine (ED50). Here is the method: as §1, §2

The subject of data set [3] is isolated guinea pig intestine (histamine). Nature of the data set: spasmolytic action against histamine on the isolated guinea pig intestine. The following applies: histamine 10^-7 g/ml; for IC50: Cavia porcellus, read-out: Spasmolytic action against Histamine (ED50). Also noted: key to Spasmolytic action against Histamine (ED50): (--): reduction of 10%; --: reduction of 25%; ----: reduction of 50%; .phi.: substantially no action. The method, then:
as §1, §2

For another data set, the system named is dictyocaulus. The following applies: in vivo; cited from earlier work.
The next data set concerns filaria. The following applies: in vivo; cited from earlier work.

Values after ≈ are worked out from the molar mass of the structure shown. Structures can show the parent of a compound that is named as a salt. Bounds are passed on as bounds.

The text below walks through data of patent US4115569A, “Cyclic diamine derivatives” (Hoechst Aktiengesellschaft, priority 1971, dated 1978).

Usually LD50 stands for the dose expected to kill half of the subjects tested. Take `O=C(c1cc2ccccc2o1)N1CCN(Cc2ccc(F)cc2)CC1` [Compound 5, N-(4-fluorobenzyl)-coumarillic acid piperazide]: the change in vivo at 25 mg/kg with reserpine ptosis is -50%. This compound showed a 50% lethal dose (LD50) in “acute toxicity (LD50)” (ip, i.p. mouse) of 100 to 250 mg/kg.

Consider `O=C(c1cc2ccccc2o1)N1CCCN(Cc2ccccc2)CC1` [Compound 17, N-benzyl-coumarillic acid homopiperazide], for which the “Action on the heart mechanogram” value in the data set with heart (dose 10 (82 g)) and in the data set with heart (dose 30 (82 g)) was “.phi” each time. For the same compound, the entries for the “Coronary through-flow: Change (initial or only value)” value in the data set on coronary vessels (dose 10 (82 g)) and in the data set with coronary vessels (dose 30 (82 g)) were “+8%” and “+25%”, respectively. The “Coronary through-flow: Duration (initial or only value)” value in the data set on coronary vessels (dose 10 (82 g)) and in the data set on coronary vessels (dose 30 (82 g)) was 1.0 min in each case.

`O=C(c1cc2ccccc2o1)N1CCN(Cc2ccc(Cl)cc2)CC1` [Compound 2, N-(4-chloro)-benzyl-coumarillic acid piperazide]: the IC50 in [1] and in [3] was 1 to 10 µg/mL (≈ 2.82 to 28.2 µM) in each case. Moreover, the “Spasmolytic action against Acetylcholine (ED50)” value in data set [2] was “>”.

In the case of `CC1=C(C(=O)N2CCN(Cc3ccccc3)CC2)CCCO1` [Compound 24, N-benzyl-[6-methyl-2,3-dihydropyran-5-carboxylic acid]piperazide], the “Spasmolytic action against BaCl2 (ED50)” value in data set [1] is “.phi”. Further, the “Spasmolytic action against Acetylcholine (ED50)” value in [2] is “.phi”. Also, the “Spasmolytic action against Histamine (ED50)” value in [3] is recorded as “.phi”.

For `O=C(C1Cc2ccccc2O1)N1CCN(Cc2ccccc2)CC1` (stereo not shown) [Compound 20, N-benzyl-2,3-dihydrocoumarillic acid piperazide], the results for the IC50 in data set [1], in data set [2] and in [3] were 0.3 µg/mL (≈ 0.93 µM), 3 µg/mL (≈ 9.3 µM) and 1 µg/mL (≈ 3.1 µM), respectively. Further, the “Coronary through-flow: Change (initial or only value)” value in the data set with coronary vessels (dose 10 (82 g)) is “+25%”; in the data set with coronary vessels (dose 50 (82 g)), “+50%”. Also, the change in vivo at 25 mg/kg with reserpine ptosis is -32%. Moreover, the LD50 in “acute toxicity (LD50)” (ip, i.p. mouse) was 100 to 150 mg/kg.

Take `O=C(c1cccs1)N1CCN(Cc2cccs2)CC1` [Compound 42]: the change in vivo at 25 mg/kg with reserpine ptosis is -49%. In the data set “acute toxicity (LD50)” (ip, i.p. mouse), the LD50 lay within 100 to 250 mg/kg.

Consider `O=C(c1cc2ccccc2o1)N1CCN(Cc2ccc(Cl)c(Cl)c2)CC1` [Compound 3, N-(3,4-dichlorobenzyl)-coumarillic acid piperazide], for which the change in vivo at 25 mg/kg in the data set on reserpine ptosis was -22%. In “acute toxicity (LD50)” (ip, i.p. mouse), this compound yielded an LD50 of 1000 to 1500 mg/kg.

Take `O=C(c1ccco1)N1CCN(Cc2ccccc2)CC1` [Compound 21, N-benzyl-furan-2-carboxylic acid piperazide]: the “Spasmolytic action against BaCl2 (ED50)” value in data set [1] is on record as “.phi”. Moreover, in data set [2], the “Spasmolytic action against Acetylcholine (ED50)” value is “.phi”. The IC50 in data set [3] is 0.1 µg/mL (≈ 0.37 µM).

Consider `CC1=C(C(=O)N2CCN(Cc3cccs3)CC2)CCCO1` [Compound 28], for which the “Spasmolytic action against BaCl2 (ED50)” value in data set [1] is recorded as “.phi”. In data set [2], the “Spasmolytic action against Acetylcholine (ED50)” value is “.phi”. For the same compound, the “Spasmolytic action against Histamine (ED50)” value in data set [3] was “.phi”.

As to `CC1=C(C(=O)N2CCN(Cc3c(C)cc(C)cc3C)CC2)CCCO1` [Compound 26, N-(2,4,6-Trimethylbenzyl)-N-2-methyl-5,6-dihydro-pyran-3-carbonyl-piperazine-hydrochloride], the results for the “Coronary through-flow: Change (initial or only value)” value with coronary vessels (dose 30 (82 g)) and with coronary vessels (dose 100 (82 g)) were “+13%” and “+21%”, respectively. For the same compound, the “Coronary through-flow: Duration (initial or only value)” value is 5 min with coronary vessels (dose 30 (82 g)) and more than 12 min in the data set with coronary vessels (dose 100 (82 g)).

Turning to `CC1=C(C(=O)N2CCN(Cc3ccc(Cl)c(Cl)c3)CC2)CCCO1` [Compound 25, N-3,4-dichlorobenzyl-[6-methyl-2,3-dihydropyran-5-carboxylic acid]-piperazide], the IC50 in data set [1] is more than 10 µg/mL; in data set [2], 1 to 10 µg/mL (≈ 2.71 to 27.1 µM); in data set [3] it was 1 to 10 µg/mL (≈ 2.71 to 27.1 µM). Also, in the data set with heart (dose 6 (82 g)), the “Action on the heart mechanogram” value is “(--) (reduction of 10%)”. Moreover, the “reduction of the heart muscle force” value in the data set with heart (dose of 30 μg) is reported as “less than 25%”. The “Coronary through-flow: Duration (initial or only value)” value in the data set with coronary vessels (dose 6 (82 g)) amounted to 8.0 min; in the data set on coronary vessels (dose 30 (82 g)) it was 27.0 min. Further, the “Coronary through-flow: Change (initial or only value)” value with coronary vessels (dose 30 (82 g)) is “+31%”.

With `O=C(c1ccco1)N1CCN(Cc2ccc(Cl)c(Cl)c2)CC1` [Compound 22, N-3,4-dichlorobenzyl-furan-2-carboxylic acid piperazide], the change in vivo at 25 mg/kg with reserpine ptosis was -23%. For the same compound, the LD50 in “acute toxicity (LD50)” (ip, i.p. mouse) lay within 250 to 500 mg/kg.

For `CCN(CC)C(=O)N1CCN(C)CC1` [4-methylpiperazinocarboxylic acid-(1)-diethylamide citrate], the “use against dictyocaulus infections” value in the data set on dictyocaulus was “successfully used”. In addition, the “use against filaria infections” value with filaria is on record as “successfully used against filaria”.

Regarding `O=C(c1cc2ccccc2o1)N1CCN(Cc2ccccc2)CC1` [Compound 1, N-Benzyl-coumarillic acid piperazide], the IC50 in data set [1] is 1 to 10 µg/mL (≈ 3.12 to 31.2 µM); in data set [2], 10 µg/mL (≈ 31.2 µM); in data set [3], 1 to 10 µg/mL (≈ 3.12 to 31.2 µM). The “Action on the heart mechanogram” value with heart (dose 10 (82 g)) is “.phi”; with heart (dose 30 (82 g)) it was “.phi”; in the data set with heart (dose 100 (82 g)), “-- (reduction of 25%)”. Also, in the data set with heart (dose of 100 μg), the “reduction of the heart muscle force” value is given as 25%. The “action on coronary flow / coronary vessels (in words)” value in the data set on coronary vessels is on record as “considerable increase in the coronary through-flow without subsequent contraction of the vessel”. Moreover, the “Coronary through-flow: Duration (initial or only value)” value was 0.5 min with coronary vessels (dose 10 (82 g)), 1.0 min in the data set with coronary vessels (dose 30 (82 g)) and 26.0 min in the data set on coronary vessels (dose 100 (82 g)). In addition, the “Coronary through-flow: Change (initial or only value)” value is “+38%” with coronary vessels (dose 30 (82 g)) and “+120%” in the data set on coronary vessels (dose 100 (82 g)). Moreover, in the data set with reserpine ptosis, the change in vivo at 25 mg/kg is -50%. Further, the LD50 worked out at 320 mg/kg in the data set “acute toxicity (LD50)” (ip, i.p. mouse) and 2050 mg/kg in the data set “acute toxicity (LD50)” (po, orally, mouse).

On to `CC1OCCCC1C(=O)N1CCN(Cc2ccccc2)CC1` (stereo not shown) [Compound 29, N-benzyl-[6-methyl-tetrahydropyran-5-carboxylic acid]-piperazide], for which the IC50 in data set [1], in data set [2] and in [3] was more than 10 µg/mL in each case.

On to `O=C(c1cc2ccccc2[nH]1)N1CCN(Cc2ccccc2)CC1` [Compound 30, N-Benzyl-indole-2-carboxylic acid piperazide], for which, in the data set on coronary vessels (dose 10 (82 g)), the “Coronary through-flow: Change (initial or only value)” value was “+90%” and the “Coronary through-flow: Duration (initial or only value)” value was determined as 12 min.

In the case of `CN(C)CCCN1c2ccccc2CCc2ccccc21` [Imipramine, 5-(3'-dimethylaminopropyl)-10-11-dihydro-5-H-dibenz-[b,f]-azepine hydrochloride, reference compound], the IC50 is 0.1 to 1 µg/mL in data set [1], 0.01 to 0.1 µg/mL in [2] and 0.001 µg/mL in data set [3]. Further, the “Action on the heart mechanogram” value was “-- (reduction of 25%)” in the data set on heart (dose 10 (82 g)), “-- (reduction of 25%)” with heart (dose 20 (82 g)) and “---- (reduction of 50%)” in the data set on heart (dose 30 (82 g)). Moreover, the results for the “reduction of the heart muscle force” value in the data set with heart (dose of 10 μg), in the data set on heart (dose of 20 μg) and in the data set on heart (dose of 30 μg) were 25%, 25% and 50%, respectively. For the same compound, in the data set with coronary vessels, the “action on coronary flow / coronary vessels (in words)” value was “initially a brief rise in coronary flow but this changes into a long contraction, and thus damages the heart”. Further, the “Coronary through-flow: Change (initial or only value)” value with coronary vessels (dose 10 (82 g)) is on record as “+19%”; in the data set on coronary vessels (dose 20 (82 g)), “+28%”; in the data set with coronary vessels (dose 30 (82 g)), “+84%”. The “Coronary through-flow: Change (second value, subsequent contraction)” value with coronary vessels (dose 10 (82 g)) is -18%; in the data set with coronary vessels (dose 20 (82 g)), -29%; with coronary vessels (dose 30 (82 g)), -22%. The entries for the “Coronary through-flow: Duration (initial or only value)” value in the data set on coronary vessels (dose 10 (82 g)) and in the data set with coronary vessels (dose 20 (82 g)) were 0.5 min and 0.6 min, respectively. Also, the “Coronary through-flow: Duration (second value, subsequent contraction)” value was 21 min in the data set with coronary vessels (dose 10 (82 g)), 26 min with coronary vessels (dose 20 (82 g)) and more than 10 min in the data set with coronary vessels (dose 30 (82 g)). The “activity in reserpine test (in words)” value in the data set with reserpine ptosis (in vivo) was “high activity”. Moreover, the change in vivo at 25 mg/kg in the data set on reserpine ptosis was -76%.

Take `O=C(c1cc2ccccc2o1)N1CCN(Cc2cccs2)CC1` [Compound 16, N-thenyl-coumarillic acid piperazide]: in [1], the “Spasmolytic action against BaCl2 (ED50)” value is “.phi”. Also, in data set [2], the “Spasmolytic action against Acetylcholine (ED50)” value is “.phi”. In addition, the “Spasmolytic action against Histamine (ED50)” value in data set [3] is given as “.phi”. For the same compound, the change in vivo at 25 mg/kg with reserpine ptosis is -54%. Further, the LD50 in “acute toxicity (LD50)” (ip, i.p. mouse) was 100 to 250 mg/kg; in “acute toxicity (LD50)” (po, orally, mouse) it was 1980 mg/kg.
